Structures can show the parent of a compound that is named as a salt.
How the values were obtained:
[1] = Solubility test in water; type: physicochemical; details: for solubility compared with amorphous ACP-196 (ACP-196 of Preparation Example 1): in water, Comparative Example 1; for solubility / Solubility test results: water, 20 mg sample, 25° C. water bath, water added until completely dissolved (not more than 200 mL); for solubility: 25 °C, thermodynamic from solid
Protocol: Solubility test: took 20 mg ACP-196 of Preparation Example 1, 20 mg ACP-196 malate Form 1 of the invention, 20 mg ACP-196 hemifumarate Form 1 of the invention, 20 mg ACP-196 maleate Form 1 of the invention, 20 mg ACP-196 phosphate Form 1 of the invention and 20 mg ACP-196 sulfate Form 1 of the invention, then placed in the beaker respectively added 1.0 mL water, stirred for 1 to 2 minutes under the condition of 25° C. water bath, observed and if not totally dissolved, added water (not more than 200 mL in total) until it's completely dissolved.

[2] = Isothermal sorption (dynamic vapor sorption), weight change with relative humidity; type: physicochemical; details: for hygroscopicity compared with amorphous ACP-196: 30 to 80% RH; for weight change (isothermal sorption plot): between 30% and 80% relative humidity
Protocol: Dynamic vapor sorption data and isothermal sorption data were collected on TA Instruments Q5000 TGA. Method: A sample of 1 to 10 mg was placed in a platinum pan; the weight change of the sample during the change in relative humidity from 0% to 80% to 0% was measured.

Compound	solubility compared with amorphous ACP-196 (ACP-196 of Preparation Example 1) [1]	solubility [1]	hygroscopicity compared with amorphous ACP-196 [2]	Solubility test results [1]	weight change (isothermal sorption plot) [2]	weight change (isothermal sorption plot) ([2]; listed as amorphous ACP-196)
CC#CC(=O)N1CCC[C@H]1c1nc(-c2ccc(C(=O)Nc3ccccn3)cc2)c2c(N)nccn12.O=C(O)/C=C\C(=O)O [ACP-196 maleate Form 1]	higher solubility	1330 µg/mL	less hygroscopic	–	–	–
CC#CC(=O)N1CCC[C@H]1c1nc(-c2ccc(C(=O)Nc3ccccn3)cc2)c2c(N)nccn12 [ACP-196 sulfate Form 1]	higher solubility	–	–	–	–	–
CC#CC(=O)N1CCC[C@H]1c1nc(-c2ccc(C(=O)Nc3ccccn3)cc2)c2c(N)nccn12.O=C(O)/C=C/C(=O)O [ACP-196 hemifumarate Form 1]	higher solubility	910 µg/mL	less hygroscopic	–	–	–
CC#CC(=O)N1CCC[C@H]1c1nc(-c2ccc(C(=O)Nc3ccccn3)cc2)c2c(N)nccn12 [ACP-196 malate Form 1]	higher solubility	–	–	1430 µg/mL	–	–
CC#CC(=O)N1CCC[C@H]1c1nc(-c2ccc(C(=O)Nc3ccccn3)cc2)c2c(N)nccn12 [ACP-196]	–	–	–	Less than 0.1 mg/mL	5.5%	5.5%
CC#CC(=O)N1CCC[C@H]1c1nc(-c2ccc(C(=O)Nc3ccccn3)cc2)c2c(N)nccn12 [ACP-196 phosphate Form 1]	higher solubility	–	less hygroscopic	–	–	–

— US10899770B2, “Crystal form of ACP-196 salt and preparation method, pharmaceutical composition, and use thereof” (Hangzhou SoliPharma Co., Ltd., priority 2017, dated 2021)
